Assay results reported in patent US20070254956A1, “Medicament for Therapeutic and/or Preventive Treatment of Restenosis or Reocclusion After Vascular Recanalization Operation” (priority 2003, published 2007).

System: proliferation of neointima
Assay: Test for inhibition of proliferation of neointima in a mouse model of femoral arterial angiopathy
Assay type: in vivo
Conditions: male C57BL/6 mouse, 1 mg/kg/day intraperitoneally for 10 days
Description: As an angiopathy model resulting from a vascular recanalization operation, a treatment was carried out in which 0.015 inch spring wires were implanted into both […] of 20-25 g male C57BL/6 mouse under anesthesia, and placed for 1 minute to extend the arteries. After the operation, the compound represented by the formula (I) was administered 1 mg/kg/day intraperitoneally for 10 days. Blood vessels were extirpated 4 weeks after the operation and histopathologically examined. Influences between the drug administered group and non-administered group on the cross-section ratio of neointima and tunica media (neointima/tunica media) were compared.

Structure (SMILES): O=C(Nc1cc(C(F)(F)F)cc(C(F)(F)F)c1)c1cc(Cl)ccc1O [compound (I)]
- cross-section ratio of neointima and tunica media (neointima/tunica media) (wire-injured femoral arteries, vessels examined 4 weeks after operation, non-administered group 2.01±0.15): 1.01±0.27
- inhibition of the proliferation of neointima after the angiopathy (4 weeks after operation): strongly inhibited the proliferation of neointima
